# According to PubChem BioAssay AID1645848:
# Conditions: buffer; pH 7.4; 6.0 h; 150.0 µM
row,SMILES,solubility kinetic [µg/mL]
1,CCN(CC)S(=O)(=O)c1ccc2oc(C(=O)Nc3ccc(Br)cc3F)c(C)c2c1,< 1
2,Cc1ccc(C(=O)[C@H]2CC[C@@H](C(=O)Nc3ccc(S(=O)(=O)Nc4nccs4)cc3)C2)cc1C,2.28
3,Cn1c(=O)c2cc(C(=O)NCCCN3CCN(c4ccccc4F)CC3)sc2c2ccccc21,< 1
4,CCCNC(=O)c1ccc2c(c1)N=C(C)c1c(C)ccc(C)c1S2,2.73
5,COc1ccc(NC(=O)c2ccccc2)cc1S(=O)(=O)Nc1ccc(Br)cc1,< 1
6,COc1cc(-c2cc3c(nc2-c2ccccc2)nc(C(=O)NC2CCN(C)CC2)n3C)ccn1,> 67
7,CC[C@H](NC(=O)[C@H](C)NC)C(=O)N1C[C@@H](O)C[C@H]1Cc1c(-c2[nH]c3cc(F)ccc3c2C[C@@H]2C[C@H](O)CN2C(=O)[C@H](CC)NC(=O)[C@H](C)NC)[nH]c2cc(F)ccc12,75.2
8,CN(C(=O)COC(=O)c1csc(NCc2ccccc2)n1)c1ccccc1,26.4
9,O=C(c1ccc2ncccc2c1)N1CCc2c(nc3cc[nH]n3c2=O)C1,11.2
10,Cc1ccc(-c2cc(C(=O)O)c3ccccc3n2)cc1,> 39
11,CCN(CC)CCCCNc1ncc2cc(-c3c(Cl)cccc3Cl)c(NC(=O)NC(C)(C)C)nc2n1,34.7
12,O=C(Cc1n[nH]c(=O)c2ccccc12)NC1CCCc2c1[nH]c1c(Cl)cccc21 (stereo not drawn),< 1
13,COc1ccc(NC(=O)c2c(C)cccc2C)cc1S(=O)(=O)Nc1ccc(Br)cc1,< 1
14,O=C(O)c1ccnc2cc(-c3nc4ccccc4n3CCN3CCCCC3)sc12,6.93
15,CCOC(=O)N1CCN(Cc2nc3c(c(=O)n(C)c(=O)n3C)n2Cc2ccc(F)cc2)CC1,> 68
16,O=C(c1ccc2c(c1)ncn2-c1ccc(C(F)(F)F)cc1)N1CCCCC1,> 55
17,CCOc1ccc(NC(=O)c2cccc(-n3cccc3)c2)cc1S(=O)(=O)N1CCOCC1,3
18,O=C(Nc1nc(-c2ccccc2)cs1)c1ccncc1NS(=O)(=O)c1cccc2cccnc12,39.8
19,Cc1ccc(S(=O)(=O)Nc2nc3ccc(C)cc3nc2Nc2ccc3c(c2)OCO3)cc1,> 66

row,SMILES,solubility kinetic [µg/mL]
1,C#CCNC(=O)c1nc(-c2ccc(Cl)nc2)c2ccccn12,2.64
2,Cc1cccc(C(=O)Nc2ccc(N3CCC(N4CCCCC4)CC3)c(C(=O)O)c2)c1,> 62
3,c1ccc(Nc2cc3c(cn2)CN(Cc2ccsc2)CCN3)cc1,> 75
4,Cc1cc(C)nc(NC(=S)N2CCN(Cc3cccc(C(F)(F)F)c3)CC2)c1,35.9
5,CCO.Nc1nc(N)c2cc(Sc3ccc4ccccc4c3)ccc2n1,< 1
6,Fc1cc(Nc2nc(-c3ccncc3)nc3ccccc23)ccc1-c1ccncc1,< 1
7,Oc1ccc(CN2CC(CNc3ccccc3)C3(C2)CN(c2ccccc2)C3)cc1 (stereo not drawn),1.79
8,CC(C)(C)CN1CCNc2cc(Nc3ccccc3)ncc2C1,38.5
9,Cn1cc(S(=O)(=O)N2CCOCC2)cc1C(=O)Nc1ccc(Cl)c(C(F)(F)F)c1,< 1
10,CCc1ccc(C2Sc3ccccc3NC3=C2C(=O)c2ccccc23)cc1 (stereo not drawn),< 1
11,FC(F)(F)Oc1cccc(Nc2nc(-c3ccncc3)nc3ccccc23)c1,< 1
12,COC(=O)c1cc2occc2n1Cc1nc(-c2ccc(C)cc2)oc1C,< 1
13,Cc1cnc(CNc2nc(-c3ccccc3Cl)nc3ccccc23)cn1,41.9
14,CN(C)CCOc1ccc(/C(=C(/CCCl)c2ccccc2)c2ccccc2)cc1,< 1
15,Clc1cccc(Nc2nc(-c3ccncc3)nc3ccccc23)c1,< 1
16,Cc1cc(C)nc(NC(=S)N2CCN(c3ccc(F)cc3F)CC2)c1,24.8
17,Cc1nc2sccn2c(=O)c1S(=O)(=O)Nc1ccc(N2CCN(S(C)(=O)=O)CC2)cc1,6.85
18,COc1cccc(C(=O)Nc2nc(-c3nnn(-c4cc(C)ccc4C)c3C)ns2)c1,1.2
19,Cc1cc(NS(=O)(=O)c2ccc(NC(=O)Cc3ccc(Cl)c(F)c3)cc2)no1,> 63
